The target in one assay is T1, hSOS1 and hKRASG12C (Homo sapiens, UniProt Q07889).
T1 sequence (Q07889 564-1049): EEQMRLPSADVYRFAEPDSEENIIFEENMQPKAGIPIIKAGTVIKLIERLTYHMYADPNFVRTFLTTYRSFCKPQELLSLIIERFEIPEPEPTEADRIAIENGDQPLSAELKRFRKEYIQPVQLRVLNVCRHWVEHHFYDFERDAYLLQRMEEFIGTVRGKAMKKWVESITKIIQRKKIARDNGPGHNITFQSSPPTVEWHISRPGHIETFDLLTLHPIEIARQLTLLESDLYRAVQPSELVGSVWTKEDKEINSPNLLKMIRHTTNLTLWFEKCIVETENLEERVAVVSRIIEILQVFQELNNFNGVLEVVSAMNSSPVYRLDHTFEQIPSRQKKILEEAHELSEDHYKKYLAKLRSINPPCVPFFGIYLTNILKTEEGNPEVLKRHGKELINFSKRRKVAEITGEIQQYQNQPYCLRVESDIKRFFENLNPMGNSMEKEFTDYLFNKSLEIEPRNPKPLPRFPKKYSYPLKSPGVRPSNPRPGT
In words: biochemical.

The target of assay [1] is T2, hSOS1 mediated nucleotide exchange on hKRASG12C (Homo sapiens, UniProt Q07889).
T2 sequence (Q07889 564-1049): T1 sequence (Q07889 564-1049)
Put plainly: biochemical.
Description: Example-127: Guanine Nucleotide Exchange Assay (GNEA)
GNEA assay was conducted to evaluate the effects of compounds on the nucleotide exchange on hKRASG12C mediated by hSOS1. Inhibitory effect of compounds on HIS-hSOS1, 564-1049aa mediated GTP loading onto GST-hKRASG12C, 1-169aa both expressed and purified in-house was assessed using HTRF detection technology in biochemical assay. Compounds were pre-incubated with hSOS1 working solution containing 10-50 nM hSOS1 and 200 nM EDA-GTP-DY-647P1 (Custom manufactured, Jena Biosciences) per well of a 384 well plate (Perkin Elmer, Cat #6007290) for 10 min at 20° C. in the assay buffer containing 10 mM HEPES, pH 7.4, 150 mM NaCl, 5 mM MgCl2, 1 mM DTT, 0.05% BSA fraction V and 0.0025% Igepal. Reaction was initiated by adding working solution of hKRASG12C containing 25-125 nM hKRASG12C and MAb Anti-GST-Tb (#61GSTTLA, Cisbio BioAssays) in assay buffer. Total assay volume was 15 μL. Reaction was continued for 30-60 min at 20° C. HTRF signal was recorded in PHERAStar microplate reader. Ratio of signal obtained at 665 nm and 620 nm was used to compute the percent inhibition of compound as follows.
Where, Positive control=hSOS1+EDA-GTP-DY-647P1+hKRASG12C+MAb Anti-GST-Tb Negative control=EDA-GTP-DY-647P1+hKRASG12C+MAb Anti-GST-Tb

The next assay deals with pERK in DLD1 cells. In words: ERK phosphorylation assay after EGF stimulation. It counts as cell-based. As to conditions: Homo sapiens, DLD-1, compound 2 h, 200 ng/ml hEGF 5 minutes, alphascreen pERK, read-out: ERK phosphorylation inhibition IC50. As for the experimental part: Example-128: ERK Phosphorylation Assay Protocol
Compounds were tested for their ability to inhibit pERK after EGF stimulation in DLD1 cells. Cells were seeded at 0.2 million cells per well in 96 well cell binding tissue culture plate in 100 μL complete media and were allowed to settle overnight (16 to 20 h). On the following day, cells were treated with various concentrations of test compounds for 2 h followed by stimulation with 200 ng/ml hEGF (diluted in PBS) for 5 minutes. Cells were then washed once with PBS and lysed in freshly prepared lysis buffer (provided with alphascreen surefire ERK1/2 p-T202/Y204 assay kit, cat no: TGRESB10K, Perkin Elmer). Lysis was carried out in plate shaker for 10-15 mins. Lysate was transferred to […] white opti-plate (Perkin Elmer) and alphascreen for pERK was carried out as per manufacturer's instructions. Plate was read after 2 h incubation in plate shaker at […] 300 RPM, 25-28° C.
In general terms: In Alpha technology, singlet oxygen from a donor bead excites a nearby acceptor bead.

As a reminder, the IC50 is the concentration that gives 50% inhibition.

Regarding `Cc1nc(N[C@H](C)c2cc(N)cc(C(F)(F)F)c2)c2cc(N3CCN(C)C(=O)C3)c3c(c2n1)CCC3` [Compound 56, (R)-4-(4-((1-(3-amino-5-(trifluoromethyl)phenyl)ethyl)amino)-2-methyl-8,9-dihydro-7H-cyclopenta[h]quinazolin-6-yl)-1-methylpiperazin-2-one], the IC50 at hSOS1 and hKRASG12C lay within 1 to 10 nM; in assay [1] it was 1 to 30 nM; with pERK in DLD1 cells, 1 to 200 nM.

As to `Cc1nc(N[C@H](C)c2cccc(C(F)(F)C(C)(C)O)c2F)c2cc(N3CC[C@@](C)(O)C3)c3c(c2n1)CCC3` (single isomer, unassigned) [Compound 61a], the IC50 against hSOS1 and hKRASG12C was in the range of 1 to 10 nM; in assay [1] it was 1 to 30 nM; in the assay with pERK in DLD1 cells it was 1 to 200 nM.

With `Cc1nc(N[C@H](C)c2cccc(C(F)(F)C(C)(C)O)c2F)c2cc(N3CCC(O)CC3)c3c(c2n1)CCC3` [Compound 65, (R)-1-(4-((1-(3-(1,1-difluoro-2-hydroxy-2-methylpropyl)-2-fluorophenyl)ethyl)amino)-2-methyl-8,9-dihydro-7H-cyclopenta[h]quinazolin-6-yl)piperidin-4-ol], the half-inhibitory concentration (IC50) fell in the range of 1 to 10 nM on hSOS1 and hKRASG12C; 1 to 30 nM in assay [1]; 1 to 200 nM with pERK in DLD1 cells.

Regarding `Cc1nc(N[C@H](C)c2cccc(C(F)(F)CO)c2F)c2cc(N3CC[C@@H](O)C3)c3c(c2n1)CCC3` [Compound 30, (R)-1-(4-(((R)-1-(3-(1,1-difluoro-2-hydroxyethyl)-2-fluorophenyl)ethyl)amino)-2-methyl-8,9-dihydro-7H-cyclopenta[h]quinazolin-6-yl)pyrrolidin-3-ol], the concentration for half-maximal inhibition (IC50) lay in the range of 1 to 10 nM on hSOS1 and hKRASG12C; 1 to 30 nM in assay [1]; 1 to 200 nM with pERK in DLD1 cells.

Turning to `Cc1nc(N[C@H](C)c2cc(N)cc(C(F)(F)F)c2)c2cc(N3CC[C@](C)(O)C3)c3c(c2n1)CCC3` (single isomer, unassigned) [Compound 55b], the IC50 at hSOS1 and hKRASG12C is 11 to 20 nM; in assay [1], 71 to 130 nM; with pERK in DLD1 cells it was 1 to 200 nM.

As to `Cc1nc(N[C@H](C)c2cccc(C(F)(F)C(C)(C)O)c2F)c2cc(C3(O)CCOCC3)c3c(c2n1)CCC3` [Compound 119, (R)-4-(4-((1-(3-(1,1-difluoro-2-hydroxy-2-methylpropyl)-2-fluorophenyl)ethyl)amino)-2-methyl-8,9-dihydro-7H-cyclopenta[h]quinazolin-6-yl)tetrahydro-2H-pyran-4-ol], the half-maximal inhibitory concentration (IC50) fell in the range of 11 to 20 nM on hSOS1 and hKRASG12C; 31 to 70 nM in assay [1]; 1 to 200 nM in the assay with pERK in DLD1 cells.

As to `Cc1nc(N[C@H](C)c2cc(N)cc(C(F)(F)F)c2)c2cc(N3CCC(C)(O)C3)c3c(c2n1)CCC3` (single isomer, unassigned) [Compound 55a], the half-inhibitory concentration (IC50) is 11 to 20 nM on hSOS1 and hKRASG12C; 31 to 70 nM in assay [1]; 1 to 200 nM with pERK in DLD1 cells.

`COCC1(O)CCN(c2cc3c(N[C@H](C)c4cccc(C(F)(F)C(C)(C)O)c4F)nc(C)nc3c3c2CCC3)CC1` [Compound 63, (R)-1-(4-((1-(3-(1,1-difluoro-2-hydroxy-2-methylpropyl)-2-fluorophenyl)ethyl)amino)-2-methyl-8,9-dihydro-7H-cyclopenta[h]quinazolin-6-yl)-4-(methoxymethyl)piperidin-4-ol]: the IC50 against hSOS1 and hKRASG12C was in the range of 1 to 10 nM; in assay [1], 1 to 30 nM; in the assay with pERK in DLD1 cells, 1 to 200 nM.

As to `Cc1nc(N[C@H](C)c2cc(N)cc(C(F)(F)F)c2)c2cc(N3CCC(C)(O)CC3)c3c(c2n1)CCC3` [Compound 50, (R)-1-(4-((1-(3-amino-5-(trifluoromethyl)phenyl)ethyl)amino)-2-methyl-8,9-dihydro-7H-cyclopenta[h]quinazolin-6-yl)-4-methylpiperidin-4-ol], the half-maximal inhibitory concentration (IC50) at hSOS1 and hKRASG12C was in the range of 1 to 10 nM; in assay [1], 1 to 30 nM; in the assay with pERK in DLD1 cells, 1 to 200 nM.

Take `Cc1nc(N[C@H](C)c2cc(N)cc(C(F)F)c2)c2cc(N3CCOCC3)c3c(c2n1)CC(C)(C)O3` [Compound 115, (R)—N-(1-(3-amino-5-(difluoromethyl)phenyl)ethyl)-2,8,8-trimethyl-6-morpholino-8,9-dihydrofuro[2,3-h]quinazolin-4-amine]: the half-inhibitory concentration (IC50) on hSOS1 and hKRASG12C is 1 to 10 nM; in assay [1], 31 to 70 nM; with pERK in DLD1 cells, 1 to 200 nM.

Take `Cc1nc(N[C@H](C)c2cccc(C(F)(F)CO)c2F)c2cc(N3CCOCC3)c3c(c2n1)CCC3` [Compound 75, (R)-2,2-difluoro-2-(2-fluoro-3-(1-((2-methyl-6-morpholino-8,9-dihydro-7H-cyclopenta[h]quinazolin-4-yl)amino)ethyl)phenyl)ethan-1-ol]: the 50% inhibitory concentration (IC50) was 1 to 10 nM at hSOS1 and hKRASG12C; 1 to 30 nM in assay [1]; 1 to 200 nM in the assay on pERK in DLD1 cells.

For the compound `COC[C@H]1CN(c2cc3c(N[C@H](C)c4cccc(C(F)(F)C(C)(C)O)c4F)nc(C)nc3c3c2CCC3)CCO1` [Compound 62, 1,1-difluoro-1-(2-fluoro-3-((R)-1-((6-((R)-2-(methoxymethyl)morpholino)-2-methyl-8,9-dihydro-7H-cyclopenta[h]quinazolin-4-yl)amino)ethyl)phenyl)-2-methylpropan-2-ol], the IC50 on hSOS1 and hKRASG12C lay in the range of 1 to 10 nM; in assay [1], 1 to 30 nM; in the assay on pERK in DLD1 cells it was 1 to 200 nM.

For `Cc1nc(N[C@H](C)c2cc(N)cc(C(F)(F)F)c2)c2cc(N3CCNC(=O)C3)c3c(c2n1)CCC3` [Compound 53, (R)-4-(4-((1-(3-amino-5-(trifluoromethyl)phenyl)ethyl)amino)-2-methyl-8,9-dihydro-7H-cyclopenta[h]quinazolin-6-yl)piperazin-2-one], the IC50 at hSOS1 and hKRASG12C fell in the range of 1 to 10 nM; in assay [1], 1 to 30 nM; in the assay with pERK in DLD1 cells it was 1 to 200 nM.

As to `COCC1(O)CCN(c2cc3c(N[C@H](C)c4cccc(C(F)(F)CCO)c4F)nc(C)nc3c3c2CCC3)CC1` [Compound 71, (R)-1-(4-((1-(3-(1,1-difluoro-3-hydroxypropyl)-2-fluorophenyl)ethyl)amino)-2-methyl-8,9-dihydro-7H-cyclopenta[h]quinazolin-6-yl)-4-(methoxymethyl) piperidin-4-ol], the half-inhibitory concentration (IC50) lay within 1 to 10 nM against hSOS1 and hKRASG12C; 1 to 30 nM in assay [1]; 1 to 200 nM in the assay with pERK in DLD1 cells.

For the compound `Cc1nc(N[C@H](C)c2cccc(C(F)(F)C(C)(C)O)c2F)c2cc(N3CC4(COC4)C3)c3c(c2n1)CCC3` [Compound 10, (R)-1,1-difluoro-1-(2-fluoro-3-(1-((2-methyl-6-(2-oxa-6-azaspiro[3.3]heptan-6-yl)-8,9-dihydro-7H-cyclopenta[h]quinazolin-4-yl)amino)ethyl)phenyl)-2-methylpropan-2-ol], the IC50 against hSOS1 and hKRASG12C was in the range of 1 to 10 nM; in assay [1], 1 to 30 nM; with pERK in DLD1 cells, 1 to 200 nM.

For the compound `COC[C@H]1CN(c2cc3c(N[C@H](C)c4cccc(C(F)(F)CO)c4F)nc(C)nc3c3c2CCC3)CCO1` [Compound 35, 2,2-difluoro-2-(2-fluoro-3-((R)-1-((6-((R)-2-(methoxymethyl)morpholino)-2-methyl-8,9-dihydro-7H-cyclopenta[h]quinazolin-4-yl)amino)ethyl)phenyl)ethan-1-ol], the half-inhibitory concentration (IC50) against hSOS1 and hKRASG12C fell in the range of 1 to 10 nM; in assay [1] it was 1 to 30 nM; in the assay on pERK in DLD1 cells, 1 to 200 nM.

With `COCC1CCN(c2cc3c(N[C@H](C)c4cc(N)cc(C(F)(F)F)c4)nc(C)nc3c3c2CCC3)CC1` [Compound 54, (R)—N-(1-(3-amino-5-(trifluoromethyl)phenyl)ethyl)-6-(4-(methoxymethyl)piperidin-1-yl)-2-methyl-8,9-dihydro-7H-cyclopenta[h]quinazolin-4-amine], the IC50 against hSOS1 and hKRASG12C was in the range of 11 to 20 nM; in assay [1], 31 to 70 nM; with pERK in DLD1 cells, 1 to 200 nM.

As for `COCC1(O)CCN(c2cc3c(N[C@H](C)c4cccc(C(F)(F)COC)c4F)nc(C)nc3c3c2CCC3)CC1` [Compound 69, (R)-1-(4-((1-(3-(1,1-difluoro-2-methoxyethyl)-2-fluorophenyl)ethyl)amino)-2-methyl-8,9-dihydro-7H-cyclopenta[h]quinazolin-6-yl)-4-(methoxymethyl) piperidin-4-ol], the IC50 against hSOS1 and hKRASG12C was in the range of 1 to 10 nM; in assay [1] it was 1 to 30 nM; with pERK in DLD1 cells, 1 to 200 nM.

On to `Cc1nc(N[C@H](C)c2cccc(C(F)(F)C(C)(C)O)c2F)c2cc(N3CCC(CO)CC3)c3c(c2n1)CCC3` [Compound 64, (R)-1,1-difluoro-1-(2-fluoro-3-(1-((6-(4-(hydroxymethyl)piperidin-1-yl)-2-methyl-8,9-dihydro-7H-cyclopenta[h]quinazolin-4-yl)amino)ethyl)phenyl)-2-methylpropan-2-ol], for which the 50% inhibitory concentration (IC50) on hSOS1 and hKRASG12C lay in the range of 1 to 10 nM; in assay [1], 1 to 30 nM; with pERK in DLD1 cells it was 1 to 200 nM.

The values above are taken from patent publication US12435066B2, “Substituted tricyclic compounds” (LUPIN LIMITED, priority 2019, dated 2025).
